Reference: PubChem BioAssay AID2060497 (Molecular Pharmacology Branch, DTP, NCI, 2025)
One block for each compound: values may come before it.

System: 317291-083-R-J1-PDC complex spheroids, viability
Experiment: Anticancer human tumor 317291-083-R-J1-PDC patient-derived soft tissue sarcoma cell line growth inhibition [GQUAD]
Conditions: for IC50: curve of first compound; for viability, T/C: stronger effect = lower value
Excerpt: DNA G-quadruplex Stabilizer Agents in Combinations in Complex Spheroids
A high-throughput screen of multi-cell type tumor spheroids was designed to identify active combinations of DNA G-quadruplex stabilizer agents and targeted small molecules. Complex spheroids include a stromal component modeled by human endothelial cells (HUVEC) and fibroblasts modeled by human mesenchymal stem cells (MSCs). The concentration ranges selected for each drug and investigational agent were based upon clinically achievable concentrations if the clinical Cmax of the agent was known.
Compounds. The drugs and investigational agents: pidnarulex (CX-5461; NSC782164), APTO-253 (NSC789042), BRACO-19 (NSC847499), peposertib (NSC802822), ceralasertib (NSC780249), elimusertib (NSC800525), camonsertib (NSC841442), AZD-1390 (NSC803789), olaparib (NSC753686), talazoparib (NSC767125), ART-558 (NSC835418), sotorasib (NSC818433), MRTX-1133 (NSC836407), SN-38 (NSC673596), topotecan (NSC609699), etoposide (NSC141540), doxorubicin (NSC123127), gemcitabine (NSC613327), 5-fluorouracil (NSC19893), paclitaxel (NSC125973), vemurafenib (NSC761431), panobinostat (NSC761190), R-306465 (JNJ-16241199; NSC773264), adavosertib (NSC754352), TP-3654 (NSC805149), carboplatin (NSC241240), KSQ-4279 (NSC840948), and staurosporine (NSC755774) were obtained from the National Cancer Institute (NCI) Developmental Therapeutics Program Chemical Repository (34). The FDA-approved anticancer drug set is available from the NCI Developmental Therapeutics Program. […] The stock solutions were prepared in dimethyl sulfoxide (DMSO, Sigma-Aldrich, St. Louis, MO, cat. D2650) at 800-fold the tested concentration and stored at -70 degrees C prior to their use. All drugs and investigational agents were tested over a range starting from a high concentration at or near the clinical Cmax and decreasing in half-log increments. If the clinical Cmax for an agent had not been determined, the highest concentration tested was 10 microM.
2.3 Cell Culture. All cells were maintained in an incubator at 37 degrees C and 5% CO2 with 95% humidity. The PDC lines were cultured according to standard operating procedures established by the NCI PDMR. All PDCs were thawed and cultured in Matrigel-coated flasks prepared with a working solution of 1X Ham's F-12 nutrient mix, without supplementation (Invitrogen, cat. 11765054), 100 U/mL penicillin-streptomycin (Invitrogen, cat. 15140122), and 2.5% Matrigel (Corning Inc., cat. 354248) for the first three passages. The 857933-349-R-J2-PDC line was cultured in 6C/Colon 1B media, which includes advanced DMEM/F-12 (Thermo Fisher Scientific, cat. 12634028), 10 mM HEPES (Thermo Fisher Scientific, cat. 15630080), 1X GlutaMAX supplement (Thermo Fisher Scientific, cat. 35050061), 0.1 mg/mL primocin (InvivoGen, cat. ant-pm-2), 10% defined fetal bovine serum, heat inactivated (HyClone Laboratories Inc., cat. SH30070.03HI), 50% L-WRN conditioned media (ATCC, cat. CRL-3276), 1.25 mM N-Acetyl-L-cysteine (Sigma-Aldrich, cat. A9165), 10 mM nicotinamide (Sigma-Aldrich, cat. N0636), 1X B-27 supplement (Thermo Fisher Scientific, cat. 17504044), 1X N-2 supplement (Thermo Fisher Scientific, cat. 17502048), 10 microM Y-27632 dihydrochloride (Tocris Bioscience, cat. 1254), and 50 ng/mL human EGF recombinant protein (Thermo Fisher Scientific, cat. PHG0311). The 485176-168-R4-J1-PDC line was cultured in Panc media, which includes all 6C/Colon 1B media components plus 100 ng/mL human FGF-10 (Thermo Fisher Scientific, cat. 100-26), 500 nM SB-431542 (Selleckchem, cat. S1067), and gastrin (Tocris, cat. 3006).
[…]

[1] = second compound 0.0316 µM, first compound 0.0316 µM
[2] = second compound 0.0316 µM, first compound 0.1 µM
[3] = second compound 0.0316 µM, first compound 0.316 µM
[4] = second compound 0.0316 µM, first compound 1 µM
[5] = second compound 0.0316 µM, first compound 3.16 µM
[6] = second compound 0.0316 µM, first compound 10 µM
[7] = second compound 0.1 µM, first compound 0.0316 µM
[8] = second compound 0.1 µM, first compound 0.1 µM
[9] = second compound 0.1 µM, first compound 0.316 µM
[10] = second compound 0.1 µM, first compound 1 µM
[11] = second compound 0.1 µM, first compound 3.16 µM
[12] = second compound 0.1 µM, first compound 10 µM
[13] = second compound 0.316 µM, first compound 0.0316 µM
[14] = second compound 0.316 µM, first compound 0.1 µM
[15] = second compound 0.316 µM, first compound 0.316 µM
[16] = second compound 0.316 µM, first compound 1 µM
[17] = second compound 0.316 µM, first compound 3.16 µM
[18] = second compound 0.316 µM, first compound 10 µM
[19] = second compound 1 µM, first compound 0.0316 µM
[20] = second compound 1 µM, first compound 0.1 µM
[21] = second compound 1 µM, first compound 0.316 µM
[22] = second compound 1 µM, first compound 1 µM
[23] = second compound 1 µM, first compound 3.16 µM
[24] = second compound 1 µM, first compound 10 µM
[25] = second compound 3.16 µM, first compound 0.0316 µM
[26] = second compound 3.16 µM, first compound 0.1 µM
[27] = second compound 3.16 µM, first compound 0.316 µM
[28] = second compound 3.16 µM, first compound 1 µM
[29] = second compound 3.16 µM, first compound 3.16 µM
[30] = second compound 3.16 µM, first compound 10 µM
[31] = second compound 10 µM, first compound 0.0316 µM
[32] = second compound 10 µM, first compound 0.1 µM
[33] = second compound 10 µM, first compound 0.316 µM
[34] = second compound 10 µM, first compound 1 µM
[35] = second compound 10 µM, first compound 3.16 µM
[36] = second compound 10 µM, first compound 10 µM
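Also: spheroids exposed to compounds for one week before readout.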
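For viability, T/C in this document: percent viability relative to DMSO vehicle wells taken as 100%.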

IC50 (second compound 0.0316 µM): > 10000 nM
IC50 (second compound 0.1 µM): 8780 nM
IC50 (second compound 0.316 µM): 4430 nM
IC50 (second compound 1 µM): 153 nM
IC50 (second compound 3.16 µM): < 31.6 nM
IC50 (second compound 10 µM): < 31.6 nM
Structure (SMILES): C=CC(=O)N1CCN(c2nc(=O)n(-c3c(C)ccnc3C(C)C)c3nc(-c4c(O)cccc4F)c(F)cc23)C(C)C1 (centres undefined) + Cc1cnc(CNC(=O)c2c(=O)c3ccc(N4CCCN(C)CC4)nc3n3c2sc2ccccc23)cn1
viability, T/C [1]: 101%
viability, T/C [2]: 84.2%
viability, T/C [3]: 101%
viability, T/C [4]: 92.8%
viability, T/C [5]: 86.2%
viability, T/C [6]: 65%
viability, T/C [7]: 79.1%
viability, T/C [8]: 88.6%
viability, T/C [9]: 91%
viability, T/C [10]: 95.8%
viability, T/C [11]: 70.1%
viability, T/C [12]: 47.5%
viability, T/C [13]: 65.7%
viability, T/C [14]: 68.7%
viability, T/C [15]: 54.4%
viability, T/C [16]: 63.7%
viability, T/C [17]: 46.9%
viability, T/C [18]: 47.3%
viability, T/C [19]: 59.1%
viability, T/C [20]: 61.9%
viability, T/C [21]: 31.9%
viability, T/C [22]: 27.4%
viability, T/C [23]: 30.9%
viability, T/C [24]: 14.8%
viability, T/C [25]: 21.3%
viability, T/C [26]: 21.2%
viability, T/C [27]: 41.6%
viability, T/C [28]: 12.3%
viability, T/C [29]: 13.8%
viability, T/C [30]: 14.6%
viability, T/C [31]: 22%
viability, T/C [32]: 63.3%
viability, T/C [33]: 22.2%
viability, T/C [34]: 13.2%
viability, T/C [35]: 35.4%
viability, T/C [36]: 6.85%

IC50 (second compound 0.0316 µM): 1280 nM
IC50 (second compound 0.1 µM): 493 nM
IC50 (second compound 0.316 µM): < 31.6 nM
IC50 (second compound 1 µM): < 31.6 nM
IC50 (second compound 3.16 µM): < 31.6 nM
IC50 (second compound 10 µM): < 31.6 nM
Structure (SMILES): CC1COCCN1c1cc(C2(S(C)(=N)=O)CC2)nc(-c2ccnc3[nH]ccc23)n1 (centres undefined) + Cc1cnc(CNC(=O)c2c(=O)c3ccc(N4CCCN(C)CC4)nc3n3c2sc2ccccc23)cn1
viability, T/C [1]: 97.2%
viability, T/C [2]: 99.6%
viability, T/C [3]: 69.2%
viability, T/C [4]: 67.6%
viability, T/C [5]: 19%
viability, T/C [6]: 10.4%
viability, T/C [7]: 66.2%
viability, T/C [8]: 111%
viability, T/C [9]: 64.6%
viability, T/C [10]: 34.4%
viability, T/C [11]: 22.5%
viability, T/C [12]: 23.2%
viability, T/C [13]: 44%
viability, T/C [14]: 42.2%
viability, T/C [15]: 42.8%
viability, T/C [16]: 35%
viability, T/C [17]: 12.2%
viability, T/C [18]: 18.2%
viability, T/C [19]: 34.8%
viability, T/C [20]: 60.1%
viability, T/C [21]: 32.2%
viability, T/C [22]: 20.8%
viability, T/C [23]: 25.3%
viability, T/C [24]: 14.8%
viability, T/C [25]: 16.2%
viability, T/C [26]: 22.4%
viability, T/C [27]: 18%
viability, T/C [28]: 26.7%
viability, T/C [29]: 15.4%
viability, T/C [30]: 14.6%
viability, T/C [31]: 39.2%
viability, T/C [32]: 19.8%
viability, T/C [33]: 46.7%
viability, T/C [34]: 9.84%
viability, T/C [35]: 20.8%
viability, T/C [36]: 9.87%
